Data on 61 compounds can be found in patent US12295396B2, “Antagonists of T2R54 and compositions and uses thereof” (Firmenich Incorporated, priority 2018, dated 2025).

One may read the IC50 as the concentration needed to halve the response being measured.

Structures are written as SMILES. Where two headings read alike, the source gives them in different places.

This experiment addresses T1, hT2R54 (Homo sapiens, UniProt P59534).
T1 construct: expressed in transfected cells; it overexpresses a promiscuous G protein
T1 sequence (P59534 1-338): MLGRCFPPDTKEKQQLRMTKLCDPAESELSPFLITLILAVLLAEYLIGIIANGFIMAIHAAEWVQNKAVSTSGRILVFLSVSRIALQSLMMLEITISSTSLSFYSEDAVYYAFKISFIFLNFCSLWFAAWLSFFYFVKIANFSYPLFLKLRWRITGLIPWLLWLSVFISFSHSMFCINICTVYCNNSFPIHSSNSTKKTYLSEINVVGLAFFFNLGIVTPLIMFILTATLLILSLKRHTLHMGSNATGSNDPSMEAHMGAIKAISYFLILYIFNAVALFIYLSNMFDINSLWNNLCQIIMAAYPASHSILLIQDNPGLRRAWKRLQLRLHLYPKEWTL
Kind of experiment: Cell-based assay for measuring hT2R54 inhibition (FLIPR calcium, Fluo4AM, acetaminophen as bitter agonist). Conditions: cells stably expressing hT2R54 and a promiscuous G protein, read-out: hT2R54 IC50. As to the method:
Cells stably expressing hT2R54 and a promiscuous G protein were seeded in 384 well plates 24 hours prior to the experiment. Cells were loaded with the calcium indicator Fluo4AM, washed and loaded in a FLIPR instrument with a compound plate containing increasing doses of acetaminophen in quadruplicates and prepared at 2× of final concentration. Baseline was recorded for 10 seconds, then 25 μl of […] was added onto 25 μl of cells and resulting changes in fluorescence were monitored over an additional 3 minutes. The host cell line overexpressing the G protein but not hT2R54 was treated as described above.
The ability of a test compound that blocks bitter taste elicited through hT2R54 was measured in this assay, as follows. Cells stably expressing hT2R54 and a promiscuous G protein were seeded in 384 well plates 24 hours prior to the experiment. Cells were loaded with the calcium indicator Fluo4AM, washed and loaded in a FLIPR instrument with a compound plate containing increasing doses of acetaminophen in buffer and increasing doses of acetaminophen with depicted fixed concentrations of Cmpd 109 (Table 4). Base line was recorded for 10 seconds, then 25 μl of compound and compound mixtures were added onto 25 μl of cells and resulting changes in fluorescence were monitored over an additional 3 minutes. The concentration of test compound that blocks half of the response when the bitter compound alone is present is presented as the EC50 or IC50 value.
In the examples above, the EC50 of compounds for blocking bitter taste elicited through T2R54 was measured in the same manner.

Regarding `CC(=O)c1cc2c(cc1NC(=O)CN1CCN(C(=O)c3cccc(CO)c3)CC1)OCO2` [compound 50], the IC50 (Table 2) was found to be 0.402 µM.

On to `COCc1cccc(C(=O)N2CCN(CC(=O)Nc3cc4c(cc3C(C)=O)OCO4)CC2)c1` [compound 51], for which the concentration for half-maximal inhibition (IC50) (Table 2) turned out to be 0.234 µM. On the same count and under the same terms, the same measure for `CC(=O)c1cc2c(cc1NC(=O)CN1CCN(C(=O)Cc3ccccc3)CC1)OCO2` [compound 52]: 0.051 µM; for `CC(=O)c1cc2c(cc1NC(=O)CN1CCN(C(=O)Cc3ccccc3O)CC1)OCO2` [compound 53]: 0.018 µM. The same measure, in the same setting: under `COc1ccccc1CC(=O)N1CCN(CC(=O)Nc2cc3c(cc2C(C)=O)OCO3)CC1` [compound 54] stands 0.024 µM; under `CC(=O)c1cc2c(cc1NC(=O)CN1CCN(C(=O)Cc3ccccc3F)CC1)OCO2` [compound 55], 0.07 µM. In the case of `CC(=O)c1cc2c(cc1NC(=O)CN1CCN(C(=O)Cc3cccnc3)CC1)OCO2` [compound 56], the IC50 (Table 2) stood at 0.08 µM.

Take `CC(=O)c1cc2c(cc1NC(=O)CN1CCN(C(=O)Cc3cccc(O)c3)CC1)OCO2` [compound 57]: the IC50 (Table 2) was determined as 0.1 µM. `COc1cccc(CC(=O)N2CCN(CC(=O)Nc3cc4c(cc3C(C)=O)OCO4)CC2)c1` [compound 58]: the 50% inhibitory concentration (IC50) (Table 2) amounted to 0.06 µM. Still for that read-out and setting: under `CC(=O)c1cc2c(cc1NC(=O)CN1CCN(C(=O)Cc3cccc(F)c3)CC1)OCO2` [compound 59] stands 0.2 µM; under `CC(=O)c1cc2c(cc1NC(=O)CN1CCN(C(=O)Cc3ccncc3)CC1)OCO2` [compound 60], 0.08 µM; under `CC(=O)c1cc2c(cc1NC(=O)CN1CCN(C(=O)Cc3ccc(O)cc3)CC1)OCO2` [compound 61], 0.05 µM. Consider `COc1ccc(CC(=O)N2CCN(CC(=O)Nc3cc4c(cc3C(C)=O)OCO4)CC2)cc1` [compound 62], for which the IC50 (Table 2) stood at 0.2 µM. In the case of `CC(=O)c1cc2c(cc1NC(=O)CN1CCN(C(=O)Cc3ccc(F)cc3)CC1)OCO2` [compound 63], the IC50 (Table 2) was found to be 0.4 µM. Still for that read-out and setting: the same measure for `CC(=O)c1cc2c(cc1NC(=O)CN1CCN(C(=O)Cc3ccco3)CC1)OCO2` [compound 64]: 0.1 µM; for `CC(=O)c1cc2c(cc1NC(=O)CN1CCN(C(=O)Cc3cccs3)CC1)OCO2` [compound 65]: 0.03 µM; for `CC(=O)c1cc2c(cc1NC(=O)CN1CCN(C(=O)c3cnn(C)c3)CC1)OCO2` [compound 66]: 0.017 µM. Still for that read-out and setting: the same measure for `CC(=O)c1cc2c(cc1NC(=O)CN1CCN(C(=O)c3ccc(C)s3)CC1)OCO2` [compound 67]: 0.015 µM; for `CC(=O)c1cc2c(cc1NC(=O)CN1CCN(C(=O)c3sccc3C)CC1)OCO2` [compound 68]: 0.03 µM; for `CC(=O)c1cc2c(cc1NC(=O)CN1CCN(C(=O)c3c(C)noc3C)CC1)OCO2` [compound 69]: 0.04 µM. Consider `CC(=O)c1cc2c(cc1NC(=O)CN1CCN(C(=O)c3ccon3)CC1)OCO2` [compound 70], for which the concentration for half-maximal inhibition (IC50) (Table 2) is 0.02 µM. For `CC(=O)c1cc2c(cc1NC(=O)CN1CCN(C(=O)c3ccn(C)n3)CC1)OCO2` [compound 71], the IC50 (Table 2) was found to be 0.05 µM. Turning to `CC(=O)c1cc2c(cc1NC(=O)CN1CCN(C(=O)c3cnco3)CC1)OCO2` [compound 72], the IC50 (Table 2) was determined as 0.06 µM. As for `CC(=O)c1cc2c(cc1NC(=O)CN1CCN(C(=O)c3cc(C)cs3)CC1)OCO2` [compound 73], under “Table 2”, the half-maximal inhibitory concentration (IC50) was 0.08 µM. With `CC(=O)c1cc2c(cc1NC(=O)CN1CCN(C(=O)c3cn(C)nc3C)CC1)OCO2` [compound 74], the half-maximal inhibitory concentration (IC50) (Table 2) was 0.2 µM. The same measure, in the same setting: the same measure for `CC(=O)c1cc2c(cc1NC(=O)CN1CCN(C(=O)c3cnon3)CC1)OCO2` [compound 75]: 0.1 µM; for `CC(=O)c1cc2c(cc1NC(=O)CN1CCN(C(=O)c3nc(C)oc3C)CC1)OCO2` [compound 76]: 0.07 µM. Take `CC(=O)c1cc2c(cc1NC(=O)CN1CCN(C(=O)c3ccn(C)c3)CC1)OCO2` [compound 77]: the IC50 (Table 2) amounted to 0.03 µM. Consider `CC(=O)c1cc2c(cc1NC(=O)CN1CCN(C(=O)c3cn(C)nn3)CC1)OCO2` [compound 78], for which the half-inhibitory concentration (IC50) (Table 2) was found to be 0.03 µM. Same read-out and setting: under `CC(=O)c1cc2c(cc1NC(=O)CN1CCN(C(=O)c3ccoc3)CC1)OCO2` [compound 79] stands 0.03 µM. As for `CC(=O)c1cc2c(cc1NC(=O)CN1CCN(C(=O)c3cc4ccccc4o3)CC1)OCO2` [compound 80], the IC50 (Table 2) is 0.5 µM. In the case of `CC(=O)c1cc2c(cc1NC(=O)CN1CCN(C(=O)c3ccc(C)o3)CC1)OCO2` [compound 81], the half-maximal inhibitory concentration (IC50) (Table 2) came to 0.004 µM. As to `CCCCC(=O)N1CCN(CC(=O)Nc2cc3c(cc2OC)OCO3)CC1` [compound 82], the half-maximal inhibitory concentration (IC50) (Table 2) was determined as 0.54 µM. Same read-out and setting: under `CCOC(=O)N1CCN(CC(=O)Nc2cc3c(cc2OC)OCO3)CC1` [compound 83] stands 0.52 µM. Same read-out and setting: the same measure for `CCCOC(=O)N1CCN(CC(=O)Nc2cc3c(cc2OC)OCO3)CC1` [compound 84]: 0.24 µM.

Turning to `COc1cc2c(cc1NC(=O)CN1CCN(C(=O)C3CCCO3)CC1)OCO2` (stereo not shown) [compound 85], the concentration for half-maximal inhibition (IC50) (Table 2) came out at 1.16 µM. On the same count and under the same terms, the same measure for `COc1cc2c(cc1NC(=O)CN1CCN(C(=O)C3CCCCO3)CC1)OCO2` (stereo not shown) [compound 86]: 1.14 µM; for `COc1cc2c(cc1NC(=O)CN1CCN(C(=O)CC3CCOCC3)CC1)OCO2` [compound 87]: 1.04 µM. Turning to `COc1cc2c(cc1NC(=O)CN1CCN(C(=O)c3ccco3)CC1)OCO2` [compound 88], the concentration for half-maximal inhibition (IC50) (Table 2) was determined as 0.13 µM.

For `COc1cc2c(cc1NC(=O)CN1CCN(C(=O)c3ccc(C)o3)CC1)OCO2` [compound 89], for the setting “Table 2”, the IC50 was 0.08 µM. On the same count and under the same terms, under `COc1cc2c(cc1NC(=O)CN1CCN(C(=O)c3ccccc3F)CC1)OCO2` [compound 90] stands 0.2 µM. As to `COc1cc2c(cc1NC(=O)CN1CCN(C(=O)c3ccccc3OC)CC1)OCO2` [compound 91], where the note is “Table 2”, the half-maximal inhibitory concentration (IC50) was 0.28 µM. Still for that read-out and setting: the same measure for `COc1cc2c(cc1NC(=O)CN1CCN(C(=O)c3ccccc3O)CC1)OCO2` [compound 92]: 0.44 µM; for `COc1cc2c(cc1NC(=O)CN1CCN(C(=O)c3cccc(O)c3)CC1)OCO2` [compound 93]: 0.43 µM.

With `COc1cc2c(cc1NC(=O)CN1CCN(C(=O)c3ccccn3)CC1)OCO2` [compound 94], the IC50 (Table 2) was determined as 1.51 µM. Still for that read-out and setting: under `COc1cc2c(cc1NC(=O)CN1CCN(C(=O)c3cccnc3)CC1)OCO2` [compound 95] stands 1.34 µM; under `COc1cc2c(cc1NC(=O)CN1CCN(C(=O)c3ccncc3)CC1)OCO2` [compound 96], 1.44 µM; under `COc1cc2c(cc1NC(=O)CN1CCN(C(=O)c3ccc(F)cc3)CC1)OCO2` [compound 97], less than 1 µM. On the same count and under the same terms, under `COc1cc2c(cc1NC(=O)CN1CCN(C(=O)c3ccn(C)n3)CC1)OCO2` [compound 98] stands 1.08 µM.

On to `COc1ccccc1CC(=O)N1CCN(CC(=O)Nc2cc3c(cc2OC)OCO3)CC1` [compound 99], for which the concentration for half-maximal inhibition (IC50) (Table 2) is 0.6 µM. Same read-out and setting: under `COc1cc2c(cc1NC(=O)CN1CCN(C(=O)Cc3ccccc3O)CC1)OCO2` [compound 100] stands 0.43 µM. Take `CC(=O)c1cc2c(cc1NC(=O)CN1CCN(Cc3ccccc3)CC1)OCO2` [compound 101, N-(6-acetylbenzo[d][1,3]dioxol-5-yl)-2-(4-benzylpiperazin-1-yl)acetamide]: under “Table 3”, the half-maximal inhibitory concentration (IC50) is 1.06 µM. With `CC(=O)c1cc2c(cc1NC(=O)CN1CCN(Cc3ccccc3F)CC1)OCO2` [compound 102], the half-maximal inhibitory concentration (IC50) (Table 3) was determined as 0.5 µM.

`CC(=O)c1cc2c(cc1NC(=O)CN1CCN(Cc3cccc(F)c3)CC1)OCO2` [compound 103]: for the setting “Table 3”, the IC50 was determined as 0.5 µM. Still for that read-out and setting: under `CC(=O)c1cc2c(cc1NC(=O)CN1CCN(Cc3ccc(F)cc3)CC1)OCO2` [compound 104] stands 0.6 µM. The same measure, in the same setting: the same measure for `COc1ccc(F)cc1CN1CCN(CC(=O)Nc2cc3c(cc2C(C)=O)OCO3)CC1` [compound 105]: 0.09 µM. Turning to `CC(=O)c1cc2c(cc1NC(=O)CN1CCN(Cc3ccccn3)CC1)OCO2` [compound 106], the IC50 (Table 3) was determined as 0.3 µM. The same measure, in the same setting: under `CC(=O)c1cc2c(cc1NC(=O)CN1CCN(Cc3nc4ccccc4s3)CC1)OCO2` [compound 107] stands 4.18 µM. On the same count and under the same terms, the same measure for `CC(=O)c1cc2c(cc1NC(=O)CN1CCN(C(C(N)=O)c3ccccc3)CC1)OCO2` (stereo not shown) [compound 108]: 1.76 µM. `CC(=O)c1cc2c(cc1NC(=O)CN1CCOCC1)OCO2` [compound 109, N-(6-acetylbenzo[d][1,3]dioxol-5-yl)-2-morpholinoacetamide]: the IC50 (Table 4) was determined as 0.588 µM. Consider `CC(=O)c1cc2c(cc1NC(=O)C(C)N1CCOCC1)OCO2` (stereo not shown) [compound 110, N-(6-Acetylbenzo[d][1,3]dioxol-5-yl)-2-morpholinopropanamide], for which the IC50 (Table 4) was determined as 0.359 µM.
